{"source": "patent US8431617B2", "about": "“Use of resveratrol for the preparation of a medicament useful for the treatment of influenza virus infections” (Sigma-Tau Industrie Farmaceutiche Riunite S.p.A., priority 2002, dated 2013)", "key": {"MDCK cells [1]": {"system": "MDCK cells", "assay": "Toxicity of resveratrol on confluent monolayers of uninfected MDCK cells (cell count, Trypan Blue viability)", "experimental": "The cells were cultured in T-25 vials or in 6- and 24-well Libno plates in RPMI culture medium added with L-glutamine, penicillin-streptomycin and 10% foetal calf serum (FCS) and maintained at 37° C. in a 5% CO2 atmosphere. The confluent cell monolayers were detached with a 0.25% trypsin solution, centrifuged and reseeded in fresh medium. The cell count was done using a haemocytometer and cell viability was determined by means of exclusion with Trypan Blue viability staining (0.02%).\nFor the purposes of determining the possible degree of toxicity on the MDCK cells, the latter were treated with resveratrol after the confluence of the monolayer, at various concentrations (5, 10, 15, 20 and 40 μg/ml)."}, "[2]": {"system": "influenza virus PR8 viral proteins (H0-H1, H2, M, NP, P)", "assay": "Synthesis of viral proteins in infected MDCK cells by Western blotting", "type": "cell-based, influenza virus A/PR8/34, subtype H1N1", "details": "15 and 20 μg/ml", "protocol": "Viral proteins were analysed by Western blotting. At different times after viral infection, the cells were lysed using special lysis buffers. Equal quantities of proteins were then loaded onto polyacrylamide gel in SDS. After electrophoresis, the proteins were transferred onto a nitrocellulose membrane and treated with anti-influenza polyclonal antibody. After incubation and suitable washings, the filters were treated with a second antibody conjugated to peroxidase and the viral proteins were highlighted by means of the chemiluminescence technique (ECL), using a peroxidase substrate (luminol) which, on reacting with the enzyme, emits a light and makes an impression on the autoradiography plate. The cells were treated with resveratrol at various concentrations (5, 10, 15 and 20 μg/ml). To allow better imaging of the viral proteins, the electrophoresis run was done using a 10% polyacrylamide gel (FIG. 7A) and gradient gel (FIG. 7B)."}, "MDCK cells [3]": {"system": "MDCK cells", "assay": "Apoptosis in MDCK cells by FACS after labelling with propidium iodide", "type": "cell-based, dog", "details": "for apoptosis: antiviral doses of the drug", "protocol": "As regards the analysis of apoptosis. MDCK cells were infected with the virus PR8. After viral adsorption, the cells were treated with resveratrol at various concentrations (5, 10, 15 and 20 μg/ml). Twenty-four hours after infection, the cells were detached using a 0.25% trypsin solution and then centrifuged at 1,200 rpm for 5 min, The precipitate thus obtained was analysed by means of the FACS technique after labelling with propidium iodide.\nFor the purposes of assessing whether the induction of cell death by apoptosis was involved in the antiviral effect of reservatrol, MDCK cells were infected or not with the virus and treated with the substance at the various concentrations. Cell death by apoptosis was evaluated by FACS after labelling with propidium iodide. […] The infection in itself induced apoptosis in 12% of infected cells. Although the addition of increasing doses caused an increase in the mortality, no significant difference was observed between infected cells and uninfected cells treated with antiviral doses of the drug (35 and 37% apoptosis, respectively)."}, "[4]": {"system": "influenza virus A/PR8/34, subtype H1N1 (virus PR8)", "assay": "Replication of influenza virus PR8 in MDCK cells, virus released in supernatant titrated as haemagglutinating units", "type": "cell-based"}, "influenza virus A/PR": {"system": "influenza virus A/PR", "assay": "Survival of mice infected intranasally with influenza virus A/PR", "type": "in vivo, Balb/c AnCrIBR mice", "details": "1 mg/kg, intraperitoneal, daily for 7 days", "protocol": "Four-week-old female inbred Balb/c AnCrIBR mice were used. Resveratrol, dissolved in PBS, was administered to the animals via the intraperitoneal route at various times after infection with the influenza virus. The reservatrol concentrations were chosen so as to obtain a range of doses in the animals' blood similar to the effective range in vitro (10 to 20 μg/ml).\nThe mice were inoculated intranasally (i.n.) with a suspension containing the influenza virus A/PR at a multiplicity of infection of 2 HAU/mouse, after light anaesthesia with ether. On the basis of previous experimental data, the influenza virus at this multiplicity of infection produces haemorrhagic pneumonia that leads to the death of 80% of the animals by one week after infection. For the purposes of monitoring the infection trend, both virological and immunological parameters were monitored in addition to studying survival curves.\nThe efficacy of resveratrol was studied in an experimental influenza virus infection model in the mouse. In this model, intranasal inoculation of the virus causes severe haemorrhagic pneumonia which leads to the death of the animals within 7 to 10 days of infection. The experimental design envisages evaluation of the therapeutic efficacy of the study substance, as assessed on the basis of survival of the infected animals. […]"}, "MDCK cells [5]": {"system": "MDCK cells", "assay": "Assay of intracellular glutathione (GSH) in MDCK cells by HPLC", "type": "cell-based, dog", "protocol": "The glutathione assay has been performed as a result of the formation of S-carboxymethyl-derivatives of free thiols with iodoacetic acid followed by conversion of the NH2 terminal groups to 2,4-dinitrophenyl derivatives after the reaction of 1-fluoro-2,4-dinitrobenzene (Anal. Biochemn., 106, 55-62, 1980).\nThe MDCK cells were detached by means of the scraping technique. Later, the cells were centrifuged at 1,200 rpm for 5 minutes. The cells were washed twice in PBS and the precipitate, obtained after centrifuging, was resuspended in 200 μl of buffer. The cell lysates, obtained with repeated cycles of freezing and thawing, were deproteinised by means of precipitation in 5% metaphosphoric acid. After centrifuging at 22,300 g, the low-molecular-weight thiols present in the supernatant were derivatised with 10% iodoacetic acid v/v and neutralised with NaHCO3 in powder form. After 1 h of incubation in the dark a solution of 1.5% 1-chloro-2,4-dinitrobenzene v/v was added (1.5 ml/98.5 ml of absolute ethanol). […] The protein concentration was calculated using the Lowry method (Biol. Chem., 193, 265-75, 1951). […] The reducing reaction product is detected by the formation of stained compounds by reaction with the aromatic amino acids of the proteins. […]"}, "[6]": {"system": "mRNAs for the viral proteins HA and M", "assay": "PCR for messenger RNAs of late viral proteins in infected MDCK cells", "type": "cell-based, influenza virus A/PR8/34, subtype H1N1"}, "viral proteins NP and M": {"system": "viral proteins NP and M", "assay": "Localisation of proteins NP and M in infected MDCK cells by immunofluorescence", "type": "cell-based, influenza virus A/PR8/34, subtype H1N1", "details": "20 μg/ml", "protocol": "Viral replication was also assessed with analysis of the occurrence of viral antigens on the surface of the infected cell by means of immunofluorescence. Analysis of viral proteins by immunofluorescence was done with a fluorescence microscope using a filter emitting in the green (FITC) (lens 100×). MDCK cells, cultured on cover slides for 24 h were infected and, 18 h after infection, were fixed with methanol-acetone 1:1 at 4° C. for 15 min. Later, the cells were washed twice in PBS and permeabilised with a 0.1% solution of PBS-TRITON for 5 min. Blockade of the aspecific sites was done with 1% milk dissolved in PBS for 30 min at ambient temperature. Later, specific monoclonal antibodies (mouse anti-influenza NP and mouse anti-influenza M) to viral proteins were added, diluted 1:50 in PBS for 30 min at ambient temperature. The primary antibody was detected with a secondary antibody conjugated to fluorescein (anti-mouse FITC, Sigma). […]"}}}
{"substance": "3,4,5-trihydroxystilbene [resveratrol]", "values": [{"measurement": "toxic effects on uninfected cells", "setting": "MDCK cells [1]; 20 μg/ml", "result": "without any toxic effects on the uninfected cells being detected"}, {"measurement": "toxic effects / cell mortality", "setting": "MDCK cells [1]; 40 μg/ml", "result": "toxic effects were observed with an increase in cell mortality"}, {"measurement": "morphological alterations of the cells", "setting": "MDCK cells [1]; 10-20 μg/ml", "result": "no morphological alterations of the cells were observed"}, {"measurement": "cell number", "setting": "MDCK cells [1]; 10-20 μg/ml, confluent monolayer, uninfected", "result": "a slight reduction in cell number was observed"}, {"measurement": "expression of early nucleocapside proteins (NP and P)", "setting": "[2]", "result": "inhibited, though to a lesser extent than that of the late proteins"}, {"measurement": "synthesis of late haemoagglutinin (H0-H1, H2) and matrix proteins (M)", "setting": "[2]", "result": "almost totally inhibited"}, {"measurement": "apoptosis", "setting": "MDCK cells [3]; infected cells", "result": 35, "unit": "%"}, {"measurement": "cell death by apoptosis", "setting": "MDCK cells [3]; uninfected cells, 5 μg/ml", "result": 8, "unit": "%"}, {"measurement": "cell death by apoptosis", "setting": "MDCK cells [3]; uninfected cells, 20 μg/ml", "result": 32, "unit": "%"}, {"measurement": "apoptosis", "setting": "MDCK cells [3]; uninfected cells", "result": 37, "unit": "%"}, {"measurement": "time of addition after infection at which viral replication was significantly inhibited", "setting": "[4]; 20 μg/ml, added 0, 3, 6 and 9 h after infection, HAU/ml 24 h after infection", "result": "≤ 3", "unit": "h"}, {"measurement": "duration of treatment needed for inhibition of replication", "setting": "[4]; 20 μg/ml, added immediately after infection, removed at 0, 3, 6, 9 and 24 h", "result": "at least 9 hours"}, {"measurement": "reduction of viral titre compared to infected and untreated controls", "setting": "[4]; 20 μg/ml, added post-infection, MDCK cells, 0.2 m.o.i.", "result": 87, "unit": "%"}, {"measurement": "viral replication after 24 h, treatment only during viral adsorption", "setting": "[4]; 20 μg/ml, for one hour at 37° C. during adsorption, then removed", "result": "comparable to the replication obtained in the control cells"}, {"measurement": "viral replication", "setting": "[4]; 40 μg/ml", "result": "viral replication was completely blocked"}, {"measurement": "viral replication, dose dependence", "setting": "[4]; added post-infection, 1-40 μg/ml, HAU 24 and 48 h after infection", "result": "inhibited viral replication in a dose-dependent manner"}, {"measurement": "reversibility of antiviral activity", "setting": "[4]; on discontinuing the treatment", "result": "not reversible on discontinuing the treatment"}, {"measurement": "viral replication after direct incubation of the virus with the substance", "setting": "[4]; virus incubated with 40 μg/ml for one hour at 37° C., diluted 1:500, then used for infecting cells", "result": "no reduction in viral replication was observed"}, {"measurement": "mortality versus untreated animals", "setting": "influenza virus A/PR", "result": "significantly reduced the mortality"}, {"measurement": "animals that survived the infection", "setting": "influenza virus A/PR; 2 HAU/mouse i.n.", "result": 60, "unit": "%"}, {"measurement": "GSH levels in infected cells", "setting": "MDCK cells [5]; infected MDCK cells, 24 h after infection", "result": "did not restore the GSH levels reduced by the infection"}, {"measurement": "intracellular GSH levels compared to untreated cells", "setting": "MDCK cells [5]; uninfected MDCK cells", "result": "produced a reduction in intracellular GSH levels"}, {"measurement": "release of messenger RNAs for the late viral proteins (HA and M)", "setting": "[6]; 20 μg/ml, evaluated 8 hours after infection", "result": "causes a delay in the release of messenger RNAs"}, {"measurement": "synthesis of the mRNAs for HA and M", "setting": "[6]; 20 h after infection", "result": "not affected by treatment with resveratrol"}, {"measurement": "localisation of protein NP", "setting": "viral proteins NP and M", "result": "the NP is retained in the nucleus"}, {"measurement": "protein M expression", "setting": "viral proteins NP and M", "result": "significantly inhibited"}]}
